Measured values: paper PMC10005332, “It Takes Two to Tango, Part II: Synthesis of A-Ring Functionalised Quinones Containing Two Redox-Active Centres with Antitumour Activities” (Molecules, 2023)
Like-named read-outs stand apart in the source and are kept apart here.

Tests used:
[1] = tested on: HCT-116 (human colorectal carcinoma); parameters: method as in PMID 34778772; settings: ratio L929 / HCT-116; * data previously described; cited from earlier work
[2] = tested on: HL60 (human pro-myelocytic leukaemia); parameters: method as in PMID 34778772; settings: ratio L929 / HL60; * data previously described; cited from earlier work
[3] = tested on: A549 (human lung carcinoma); assay: MTT cytotoxicity assay, A549; format: cell-based; settings: for IC50: Homo sapiens, A549, MTT, 72 h exposure, three independent experiments, read-out: Cytotoxic activity IC50 (95% CI) A549; for Selectivity index A549: ratio of cytotoxicity L929 / A549
Summary of the method: (§1)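 IC50 values derive from nonlinear regression of MTT read-outs at 595 nm. Mycoplasma-free cells in RPMI 1640 or DMEM with 10% fetal serum were exposed to test compounds for 72 h, then given MTT for 3 h. Selectivity index uses L929 versus tumour-line cytotoxicity.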

[4] = tested on: PC3 (human prostate adenocarcinoma); parameters: method as in PMID 34778772; settings: ratio L929 / PC3; * data previously described; cited from earlier work
[5] = tested on: K-562 (human chronic myeloid leukaemia); assay: MTT cytotoxicity assay, K-562; format: cell-based; settings: for IC50: Homo sapiens, K562, MTT, 72 h exposure, three independent experiments, read-out: Cytotoxic activity IC50 (95% CI) K-562; for Selectivity index K-562: ratio of cytotoxicity L929 / K-562
Summary of the method: as §1

[6] = tested on: KG1 (human acute myeloid leukaemia); assay: MTT cytotoxicity assay, KG1; format: cell-based; settings: for IC50: Homo sapiens, MTT, 72 h exposure, three independent experiments, read-out: Cytotoxic activity IC50 (95% CI) KG1; for Selectivity index KG1: ratio of cytotoxicity L929 / KG1
Summary of the method: as §1

[7] = tested on: SNB-19 (human astrocytoma); parameters: method as in PMID 34778772; settings: ratio L929 / SNB-19; * data previously described; cited from earlier work
[8] = tested on: RAJI (human Burkitt’s lymphoma); assay: MTT cytotoxicity assay, RAJI; format: cell-based; settings: for IC50: Homo sapiens, Raji, 72 h, MTT, 72 h exposure, three independent experiments, read-out: Cytotoxic activity IC50 (95% CI) RAJI; for Selectivity index RAJI: ratio of cytotoxicity L929 / RAJI
Summary of the method: as §1

B16 (murine melanoma) = assay: MTT cytotoxicity assay, B16; format: cell-based; settings: for IC50: Mus musculus, MTT, 72 h exposure, three independent experiments, read-out: Cytotoxic activity IC50 (95% CI) B16; for Selectivity index B16: ratio of cytotoxicity L929 / B16
Summary of the method: as §1

[9] = tested on: SNB-19 (human astrocytoma); assay: MTT cytotoxicity assay, SNB-19; format: cell-based
Summary of the method: as §1

[10] = tested on: PC3 (human prostate adenocarcinoma); assay: MTT cytotoxicity assay, PC3; format: cell-based
Summary of the method: as §1

[11] = tested on: HL60 (human pro-myelocytic leukaemia); assay: MTT cytotoxicity assay, HL60; format: cell-based; settings: for IC50: MTT, 72 h exposure, three independent experiments, read-out: Cytotoxic activity IC50 (95% CI) HL60
Summary of the method: as §1

[12] = tested on: L929 cells (non-tumoral mouse fibroblast); assay: MTT cytotoxicity assay, L929 control line; format: cell-based; settings: 72 h exposure, read-out: Cytotoxic activity IC50 (95% CI) L929
Summary of the method: as §1

[13] = MTT cytotoxicity assay, L929 control line; format: cell-based, mouse; settings: mouse, L929 fibroblast cells (non-tumoral control line), 72 h exposure, read-out: Cytotoxic activity IC50 (95% CI) L929
Summary of the method: as §1

[14] = tested on: HCT-116 (human colorectal carcinoma); assay: MTT cytotoxicity assay, HCT-116; format: cell-based
Summary of the method: as §1

| Compound | IC50 [3] [µM] | Selectivity index A549 [3] | IC50 [5] [µM] | Selectivity index K-562 [5] | IC50 [6] [µM] | Selectivity index KG1 [6] | IC50 [8] [µM] | Selectivity index RAJI [8] | IC50 (B16 (murine melanoma)) [µM] | Selectivity index B16 (B16 (murine melanoma)) | also measured |
| --- | --- | --- | --- | --- | --- | --- | --- | --- | --- | --- | --- |
| COc1cccc2c1C(=O)c1c(O)c3c(c(O)c1C2=O)C[C@@](O)(C(=O)CO)C[C@@H]3O[C@H]1C[C@H](N)[C@H](O)[C@H](C)O1 [DOXO, doxorubicin, reference compound] | 0.57 | 3.0 | 0.91 | 1.9 | 0.38 | 4.5 | 2.33 | 0.7 | 0.06 | 30.2 | Selectivity index HCT-116 [1]: 8.2 *; Selectivity index HL60 [2]: 86.0 *; Selectivity index PC3 [4]: 2.3 *; Selectivity index SNB-19 [7]: 1.4 * |
| O=C1C(=O)c2ccccc2C2=C1CC(Cn1cc(CNC3=CC(=O)c4cc5ccccc5cc4C3=O)nn1)O2 (centres unmarked) [Compound 20e, 2-((4-(((1,4-dioxo-1,4-dihydroanthracen-2-yl)amino)methyl)-1H-1,2,3-triazol-1-yl)methyl)-2,3-dihydronaphtho[1,2-b]furan-4,5-dione] | 12.7 | 1.3 | 7.58 | 2.1 | 37 | 0.4 | 5.26 | 3.0 | 9.57 | 1.7 | IC50 ([9]; Homo sapiens, SNB-19, MTT, 72 h exposure, three independent experiments, read-out: Cytotoxic activity IC50 (95% CI) SNB-19): 7.87 µM; Selectivity index SNB-19 ([9]; ratio of cytotoxicity L929 / SNB-19): 2.0; IC50 ([10]; Homo sapiens, MTT, 72 h exposure, three independent experiments, read-out: Cytotoxic activity IC50 (95% CI) PC3): 17.6 µM; Selectivity index PC3 ([10]; ratio of cytotoxicity L929 / PC3): 0.9; IC50 ([11]; Homo sapiens, HL-60, 72 h): 1.6 µM; IC50 [11]: 1.57 µM; Selectivity index HL60 ([11]; ratio of cytotoxicity L929 / HL60): 10.1; IC50 [12]: 15.9 µM; IC50 at 72 h [13]: 15.9 µM; IC50 ([14]; Homo sapiens, HCT-116, 72 h, MTT, 72 h exposure, three independent experiments, read-out: Cytotoxic activity IC50 (95% CI) HCT-116): 7.2 µM; Selectivity index HCT-116 ([14]; ratio of cytotoxicity L929 / HCT-116): 2.2 |
